Target: T1, 11β-HSD 1 (Homo sapiens, UniProt P28845)
T1 construct: detecting cortisol generated from cortisterone by human liver microsomes; from tissue; host or cells: human liver microsomes
Assay: In vitro inhibition of 11β-HSD 1, HTRF detection of cortisol generated by human liver microsomes
Format: biochemical
Conditions: 1 μM test compound, 100% indicates no inhibition, zero or below zero indicates complete inhibition (relative to carbenoxolone)
Procedure: Briefly, compounds were incubated for 1 hour at 37° C. in Tris buffer (20 mM tris, 5 mM EDTA, pH 6.0) containing NADPH (200 μM) and cortisone (80 nM). Cortisol generated in the reaction is then detected with a competitive immunoassay, involving two HTRF conjugates: cortisol linked to XL665 and anti-cortisol antibody labeled with Europium cryptate. The incubation period for detection reaction was typically 2 hours. The amount of cortisol is determined by reading the time-resolved fluorescence of the wells (Ex 320/75 nm; Em 615/8.5 nm and 665/7.5 nm). The ratio of the two emission signals is then calculated (Em665*10000/Em615). […] Each assay also contained a calibration curve with cortisol to transform the fluorescent data into cortisol concentrations. Percent inhibition of each compound was determined relative to the carbenoxolone signal. In Table 2 the 11β-HSD 1 inhibitory activities at 1 μM concentration of test compound, determined as described above, of the compounds listed in Table 3 are compiled, wherein 100% indicates no inhibition and a value of zero or below zero indicates complete inhibition.

T1 sequence (P28845 whole entry): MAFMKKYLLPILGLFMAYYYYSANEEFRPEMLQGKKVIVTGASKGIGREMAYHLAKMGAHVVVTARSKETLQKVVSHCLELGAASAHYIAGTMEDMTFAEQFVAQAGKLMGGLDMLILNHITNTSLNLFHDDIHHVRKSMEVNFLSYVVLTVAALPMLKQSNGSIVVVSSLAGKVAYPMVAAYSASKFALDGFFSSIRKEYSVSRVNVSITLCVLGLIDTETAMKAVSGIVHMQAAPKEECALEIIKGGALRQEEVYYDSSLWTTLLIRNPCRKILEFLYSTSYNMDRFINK

Structure (SMILES)	Inhibitory activity on 11β-HSD 1, % CTL
O=C(c1ccc2[nH]cnc2c1)N1[C@@H]2CC[C@H]1C[C@@H](c1ccc(F)cc1)C2 [Example 1, endo-(1H-Benzoimidazol-5-yl)-[3-(4-fluoro-phenyl)-8-aza-bicyclo[3.2.1]oct-8-yl]-methanone]	−18 % CTL
O=C(c1ccc2c(c1)OCCO2)N1[C@@H]2CC[C@H]1C[C@@H](c1ccc(F)cc1)C2 [Example 3, endo-(2,3-Dihydro-benzo[1,4]dioxin-6-yl)-[3-(4-fluoro-phenyl)-8-aza-bicyclo[3.2.1]oct-8-yl]-methanone]	−32 % CTL
Cc1cc(C(F)F)n2ncc(C(=O)N3[C@@H]4CC[C@H]3C[C@@H](c3ccc(F)cc3)C4)c2n1 [Example 4, endo-(7-Difluoromethyl-5-methyl-pyrazolo[1,5-a]pyrimidin-3-yl)-[3-(4-fluoro-phenyl)-8-aza-bicyclo[3.2.1]oct-8-yl]-methanone]	87 % CTL
O=C(c1n[nH]c2c1CCC2)N1[C@@H]2CC[C@H]1C[C@@H](c1ccc(F)cc1)C2 [Example 6, endo-[3-(4-Fluoro-phenyl)-8-aza-bicyclo[3.2.1]oct-8-yl]-(1,4,5,6-tetrahydro-cyclopentapyrazol-3-yl)-methanone]	88 % CTL
O=C(c1cccs1)N1[C@@H]2CC[C@H]1C[C@@H](c1ccc(F)cc1)C2 [Example 7, endo-[3-(4-Fluoro-phenyl)-8-aza-bicyclo[3.2.1]oct-8-yl]-thiophen-2-yl-methanone]	68 % CTL
Cc1cc(=O)n2ncc(C(=O)N3[C@@H]4CC[C@H]3C[C@@H](c3ccc(F)cc3)C4)c2[nH]1 [Example 8, endo-3-[3-(4-Fluoro-phenyl)-8-aza-bicyclo[3.2.1]octane-8-carbonyl]-5-methyl-4H-pyrazolo[1,5-a]pyrimidin-7-one]	87 % CTL
COC(=O)c1ccc(C(=O)N2[C@@H]3CC[C@H]2C[C@@H](c2ccc(C)cc2)C3)s1 [Example 9, endo-5-(3-p-Tolyl-8-aza-bicyclo[3.2.1]octane-8-carbonyl)-thiophene-2-carboxylic acid methyl ester]	87 % CTL
CC(C)(C)c1cc(C(=O)N2[C@@H]3CC[C@H]2C[C@@H](c2ccc(F)cc2)C3)[nH]n1 [Example 11, endo-(5-tert-Butyl-2H-pyrazol-3-yl)-[3-(4-fluoro-phenyl)-8-aza-bicyclo[3.2.1]oct-8-yl]-methanone]	82 % CTL
O=C(c1cc(F)cc(F)c1)N1[C@@H]2CC[C@H]1C[C@@H](c1ccc(F)cc1)C2 [Example 12, endo-(3,5-Difluoro-phenyl)-[3-(4-fluoro-phenyl)-8-aza-bicyclo[3.2.1]oct-8-yl]-methanone]	85 % CTL
Cc1ccc([C@H]2C[C@H]3CC[C@@H](C2)N3C(=O)c2cscn2)cc1 [Example 13, endo-Thiazol-4-yl-(3-p-tolyl-8-aza-bicyclo[3.2.1]oct-8-yl)-methanone]	62 % CTL
Cc1ccc([C@H]2C[C@H]3CC[C@@H](C2)N3C(=O)c2cccs2)cc1 [Example 15, endo-Thiophen-2-yl-(3-p-tolyl-8-aza-bicyclo[3.2.1]oct-8-yl)-methanone]	56 % CTL
Cc1ccc([C@H]2C[C@H]3CC[C@@H](C2)N3C(=O)c2ccco2)cc1 [Example 17, endo-Furan-2-yl-(3-p-tolyl-8-aza-bicyclo[3.2.1]oct-8-yl)-methanone]	93 % CTL
CS(=O)(=O)N1CCc2cc(C(=O)N3[C@@H]4CC[C@H]3C[C@@H](c3ccc(F)cc3)C4)ccc21 [Example 20, endo-[3-(4-Fluoro-phenyl)-8-aza-bicyclo[3.2.1]oct-8-yl]-(1-methanesulfonyl-2,3-dihydro-1H-indol-5-yl)-methanone]	87 % CTL
O=C(c1n[nH]c2c1CCCC2)N1[C@@H]2CC[C@H]1C[C@@H](c1ccc(F)cc1)C2 [Example 23, endo-[3-(4-Fluoro-phenyl)-8-aza-bicyclo[3.2.1]oct-8-yl]-(4,5,6,7-tetrahydro-1H-indazol-3-yl)-methanone]	83 % CTL
CC(C)CN1Cc2cccc(C(=O)N3[C@@H]4CC[C@H]3C[C@@H](c3ccc(F)cc3)C4)c2C1=O [Example 29, endo-7-[3-(4-Fluoro-phenyl)-8-aza-bicyclo[3.2.1]octane-8-carbonyl]-2-isobutyl-2,3-dihydro-isoindol-1-one]	97 % CTL
O=C(c1nsc(Cl)c1Cl)N1[C@@H]2CC[C@H]1C[C@@H](c1ccc(F)cc1)C2 [Example 30, endo-(4,5-Dichloro-isothiazol-3-yl)-[3-(4-fluoro-phenyl)-8-aza-bicyclo[3.2.1]oct-8-yl]-methanone]	88 % CTL
O=C(c1ccc(OC2CSC2)cc1)N1[C@@H]2CC[C@H]1C[C@@H](c1ccc(F)cc1)C2 [Example 31, endo-[3-(4-Fluoro-phenyl)-8-aza-bicyclo[3.2.1]oct-8-yl]-[4-(thietan-3-yloxy)-phenyl]-methanone]	86 % CTL
Cc1ccc([C@H]2C[C@H]3CC[C@@H](C2)N3C(=O)c2ccc(OC3CSC3)cc2)cc1 [Example 32, endo-[4-(Thietan-3-yloxy)-phenyl]-(3-p-tolyl-8-aza-bicyclo[3.2.1]oct-8-yl)-methanone]	94 % CTL
O=C(c1nccc2ccccc12)N1[C@@H]2CC[C@H]1C[C@@H](c1ccc(F)cc1)C2 [Example 33, endo-[3-(4-Fluoro-phenyl)-8-aza-bicyclo[3.2.1]oct-8-yl]-isoquinolin-1-yl-methanone]	88 % CTL
O=C(c1ccco1)N1[C@@H]2CC[C@H]1C[C@@H](c1ccc(F)cc1)C2 [Example 34, endo-[3-(4-Fluoro-phenyl)-8-aza-bicyclo[3.2.1]oct-8-yl]-furan-2-yl-methanone]	75 % CTL
O=C(c1cnn2cccnc12)N1[C@@H]2CC[C@H]1C[C@@H](c1ccc(F)cc1)C2 [Example 35, endo-[3-(4-Fluoro-phenyl)-8-aza-bicyclo[3.2.1]oct-8-yl]-pyrazolo[1,5-a]pyrimidin-3-yl-methanone]	62 % CTL
NC(=O)c1ccc(C(=O)N2[C@@H]3CC[C@H]2C[C@@H](c2ccc(F)cc2)C3)c(F)c1 [Example 36, endo-3-Fluoro-4-[3-(4-fluoro-phenyl)-8-aza-bicyclo[3.2.1]octane-8-carbonyl]-benzamide]	−28 % CTL
O=C(c1cccc2ncccc12)N1[C@@H]2CC[C@H]1C[C@@H](c1ccc(F)cc1)C2 [Example 37, endo-[3-(4-Fluoro-phenyl)-8-aza-bicyclo[3.2.1]oct-8-yl]-quinolin-5-yl-methanone]	39 % CTL
CCn1ncc(C(=O)N2[C@@H]3CC[C@H]2C[C@@H](c2ccc(C)cc2)C3)c1C [Example 38, endo-(1-Ethyl-5-methyl-1H-pyrazol-4-yl)-(3-p-tolyl-8-aza-bicyclo[3.2.1]oct-8-yl)-methanone]	12 % CTL
Cn1c(=O)n(C)c2cc(C(=O)N3[C@@H]4CC[C@H]3C[C@@H](c3ccc(F)cc3)C4)ccc21 [Example 39, endo-5-[3-(4-Fluoro-phenyl)-8-aza-bicyclo[3.2.1]octane-8-carbonyl]-1,3-dimethyl-1,3-dihydro-benzoimidazol-2-one]	43 % CTL
O=C(c1cccc(N2CCCCS2(=O)=O)c1)N1C2CCC1CC(c1ccc(F)cc1)C2 (stereo not drawn) [Example 40, endo-[3-(1,1-Dioxo-1lambda*6*-[1,2]thiazinan-2-yl)-phenyl-[3-(4-fluoro-phenyl)-8-aza-bicyclo[3.2.1]oct-8-yl]-methanone]	98 % CTL
Cc1cc(C(F)(F)F)n2nc(C(=O)N3[C@@H]4CC[C@H]3C[C@@H](c3ccc(F)cc3)C4)cc2n1 [Example 42, endo-[3-(4-Fluoro-phenyl)-8-aza-bicyclo[3.2.1]oct-8-yl]-(5-methyl-7-trifluoromethyl-pyrazolo[1,5-a]pyrimidin-2-yl)-methanone]	93 % CTL
O=C(c1cscn1)N1[C@@H]2CC[C@H]1C[C@@H](c1ccc(F)cc1)C2 [Example 43, endo-[3-(4-Fluoro-phenyl)-8-aza-bicyclo[3.2.1]oct-8-yl]-thiazol-4-yl-methanone]	95 % CTL
COc1cc(C(=O)N2[C@@H]3CC[C@H]2C[C@@H](c2ccc(F)cc2)C3)cc(OC)c1OC [Example 44, endo-[3-(4-Fluoro-phenyl)-8-aza-bicyclo[3.2.1]oct-8-yl]-(3,4,5-trimethoxy-phenyl)-methanone]	57 % CTL

Same assay, conditions: 1 μM test compound, 100% indicates no inhibition, zero or below zero indicates complete inhibition (relative to carbenoxolone), 1 µM

Structure (SMILES)	Inhibitory activity on 11β-HSD 1, % CTL
NC(=O)c1ccc(C(=O)N2[C@@H]3CC[C@H]2C[C@@H](c2ccc(F)cc2)C3)cc1 [Example 2, endo-4-[3-(4-Fluoro-phenyl)-8-aza-bicyclo[3.2.1]octane-8-carbonyl]-benzamide]	−27 % CTL
O=C(c1ccccn1)N1[C@@H]2CC[C@H]1C[C@@H](c1ccc(F)cc1)C2 [Example 18, endo-[3-(4-Fluoro-phenyl)-8-aza-bicyclo[3.2.1]oct-8-yl]-pyridin-2-yl-methanone]	97 % CTL

From US8609690B2, “Aryl- and heteroarylcarbonyl derivatives of substituted nortropanes, medicaments containing such compounds and their use” (Boehringer Ingelheim International GmbH, priority 2008, dated 2013)
